Values of other authors in US20030018074A1, “Antiviral composition and treatment method” (priority 2001, published 2003).
Like-named read-outs stand apart in the source and are kept apart here.

Columns and labels:
[1] = test system: Vero cells
[2] = test system: HSV-2; conditions: for EC50: HSV-2, Vero cells, surfactant suspension, read-out: effective concentration required to inhibit plaque formation by 50% (EC50)
[3] = test system: HSV-2 virus; conditions: incubation of HSV-2 with the suspension for 2 hours
[4] = test system: early viral protein synthesis
[5] = test system: HSV-1 dorsal cutaneous infection; conditions: 5% in a branch chain ester base; guinea pigs
[6] = test system: viruses

## CCCCCCCC/C=C/CCCCCCCCCCCCO [brassidyl alcohol, trans-13-docosen-1-ol]
[1]; compared with erucyl alcohol
  cellular toxicity (in words): significantly less than that of erucyl alcohol

## CCCCCCCC/C=C\CCCCCCCCCCCC(N)=O [erucamide, cis-13-docosenoamide]
[2]; 0.03 mM
  percent inhibition of plaque formation: 34%
[2]; 0.59 mM
  percent inhibition of plaque formation: 42%
[2]; 0.89 mM
  percent inhibition of plaque formation: 44%
[2]; 1.2 mM
  percent inhibition of plaque formation: 58%
[2]; 1.5 mM
  percent inhibition of plaque formation: 68%

## CCCCCCCC/C=C\CCCCCCCCCCCCO [erucyl alcohol, cis-13-docosen-1-ol]
[2]
  EC50: 0.15 mM
[2]; concentrations tolerable to the cells (≦1 mM)
  inhibition of HSV-2 plaque production: ≤ 93%
[2]; ratio of EC50 n-docosanol to EC50 erucyl alcohol
  EC50 lower than the concentration required for n-docosanol: 60 fold
[1]; 1 mM
  cellular toxicity (in words): no cellular toxicity was observed
[1]; added to cultures at 2-15 mM
  toxicity to Vero cells (in words): toxic to Vero cells
[3]
  direct virucidal effect (in words): did not have a direct virucidal effect

## CCCCCCCCCCCCCCCCCCCCCCO [n-docosanol]
[2]
  EC50: 9 mM
[2]; Vero cultures
  concentrations where effective: 2 to 15 mM
[4]
  inhibition of early viral protein synthesis: more than 80%

## CCCCCCCCCCCCCCCCCCCCCCCCCCCCCCO [triacontanol, 1-triacontanol]
[5]
  efficacy for the treatment of HSV-1 dorsal cutaneous infection (in words): a certain amount of efficacy

## CCCCC/C=C\C/C=C\C/C=C\CCCCCO [γ-linolenyl alcohol]
[6]
  inactivation of viruses, rank among C14 to C20 unsaturated alcohols (in words): most effective
